Measurements: patent US10981896B2, “Indolinone derivatives as inhibitors of maternal embryonic leucine zipper kinase” (BOARD OF REGENTS, THE UNIVERSITY OF TEXAS SYSTEM, priority 2017, dated 2021)
Several values for one entry are separate records, joined by “and”; a condition that tells them apart may be missing. Identical values can stand only once.

Experiments:
MELK = MELK (Homo sapiens (Human), UniProt Q14680); experiment: MELK p81-based kinase assay, dose-response (IC50/Ki); format: biochemical
Sequence of MELK (Q14680 1-340): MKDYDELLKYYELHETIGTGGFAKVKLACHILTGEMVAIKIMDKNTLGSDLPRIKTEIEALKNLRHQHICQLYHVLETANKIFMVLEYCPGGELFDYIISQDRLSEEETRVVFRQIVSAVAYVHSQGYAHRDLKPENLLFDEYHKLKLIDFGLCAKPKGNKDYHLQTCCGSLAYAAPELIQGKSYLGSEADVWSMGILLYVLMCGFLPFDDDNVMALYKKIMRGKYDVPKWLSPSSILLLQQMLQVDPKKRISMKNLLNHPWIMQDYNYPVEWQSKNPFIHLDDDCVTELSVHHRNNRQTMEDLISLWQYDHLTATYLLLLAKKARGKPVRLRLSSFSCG
Method: MELK and its substrate, Bcl-G were both recombinantly expressed and purified for use in screening assays (See Methods). […] 10 nM MELK 340 and 10 μM Bcl-GL in kinase assay buffer (50 mM HEPES pH 7.5, 100 mM KCl, 0.1 mM EDTA, 0.1 mM EGTA, 10 mM MgCl2, 10 μg/mL BSA) with 10 mM DTT were added to either 10 μM or 1 μM inhibitor aliquoted into 96 well plates (final 1% DMSO). The mixture was incubated at room temperature for 30 minutes prior to initiation of the assay with 40 μM γ-^32P-ATP (100-1000 CPM/pmol). 40 μL aliquots were spotted onto a p81 96 well filter plate (Unifilter, Whatman), quenched, and washed with 75 mM O-phosphoric acid 8 times, followed by a final wash with acetone for drying. Wells were then filled with scintillation fluid, sealed, and quantified using a MicroBeta TriLux liquid scintillation counter (PerkinElmer). Each inhibitor plate was assayed in duplicate, with at least 4 wells without MELK to establish background and at least 4 wells without inhibitor as a negative control. All readings were corrected for background signal based on the average counts from the wells without enzyme. Percent inhibition, defined as [100−(CPM+inhibitor/average CPM of positive controls)*100], was determined first at 10 μM inhibitor. The top 50 inhibitors were then re-screened in duplicate at 1 μM.
At set time points (0.25, 0.5, 1, 1.5, and 2 min for assays containing 10 nM MELK and 1, 2, 4, 6, and 10 min for assays containing 1 nM MELK), 30 μL aliquots were taken from each reaction and spotted onto 2×2 cm squares of p81 paper. Papers were washed 4 times in 75 mM O-phosphoric acid and once in acetone. Labeled protein was quantified by its associated CPM determined on a Packard 1500 scintillation counter at a sigma value of 2. CPM were translated into nmol ^32P incorporated using Equation 1.
Rates in the presence of each concentration of inhibitor were determined by plotting nmol ^32P incorporated vs. time. These rates were normalized to rates obtained without inhibitor, and data were plotted in terms of fractional activity. In most cases, data were fit to Equation 2. If the IC50 approached the amount of enzyme used in the assay, data were re-fit to the equation for tight-binding inhibitors (the Morrison equation, […]). […] Data were transformed as discussed and fit to Equation 3.
IC50 values were used to estimate each inhibitor's Ki using the Cheng-Prusoff relationship for competitive inhibitors (Equation 4).

SUM-159 cells = experiment: Cell proliferation, CellTiter-Blue viability assay, SUM-159; format: cell-based, human; details: 72 h after treatment
Excerpt: (§1) HCC70, BT-549, and SUM159 human TNBC cell lines and MCF10A human breast epithelial cell line were purchased from American Type Culture Collection. The murine 4T1-Luc TNBC cells were purchased from PerkinElmer. HCC70, BT-549, and 4T1-Luc cells were maintained in RPMI 1640 medium (Life Technologies Inc., Grand Island, N.Y., USA) and MDA-MB-231-LM2 cells in Dulbecco's modified Eagle's medium/F12 medium (Life Technologies Inc., Grand Island, N.Y., USA), both types of medium supplemented with FBS (10%) and antibiotic/antimycotic (1%). SUM159 cells were maintained in Ham's F-12 medium (Life Technologies Inc., Grand Island, N.Y., USA) supplemented with FBS (5%), antibiotic/antimycotic (1%), insulin (5 μg/mL), and hydrocortisone (1 μg/mL). MCF10A cells were maintained in Dulbecco's modified Eagle's medium/F12 medium supplemented with horse serum (10%), antibiotic/antimycotic (1%), insulin (10 μg/mL), EGF (20 ng/mL), cholera toxin (100 ng/mL), and hydrocortisone (500 μg/mL). […]
(§2) Cell proliferation was determined using the CellTiter-Blue viability assay as described previously (Gloeckner H, et al. Journal of immunological methods. 2001; 252(1-2):131-138). […] At 72 h after MELK inhibitor treatment, optical density at 595 nm was determined.

HCC70 cells = experiment: Cell proliferation, CellTiter-Blue viability assay, HCC70; format: cell-based, human; details: 72 h after treatment
Excerpt: as §1, §2

MCF10A cells = experiment: Cell proliferation, CellTiter-Blue viability assay, MCF10A; format: cell-based, human; details: 72 h after treatment
Excerpt: HCC70, BT-549, and SUM159 human TNBC cell lines and MCF10A human breast epithelial cell line were purchased from American Type Culture Collection. The murine 4T1-Luc TNBC cells were purchased from PerkinElmer. HCC70, BT-549, and 4T1-Luc cells were maintained in RPMI 1640 medium (Life Technologies Inc., Grand Island, N.Y., USA) and MDA-MB-231-LM2 cells in Dulbecco's modified Eagle's medium/F12 medium (Life Technologies Inc., Grand Island, N.Y., USA), both types of medium supplemented with FBS (10%) and antibiotic/antimycotic (1%). SUM159 cells were maintained in Ham's F-12 medium (Life Technologies Inc., Grand Island, N.Y., USA) supplemented with FBS (5%), antibiotic/antimycotic (1%), insulin (5 μg/mL), and hydrocortisone (1 μg/mL). MCF10A cells were maintained in Dulbecco's modified Eagle's medium/F12 medium supplemented with horse serum (10%), antibiotic/antimycotic (1%), insulin (10 μg/mL), EGF (20 ng/mL), cholera toxin (100 ng/mL), and hydrocortisone (500 μg/mL). All cell lines used in this study were validated by the Characterized Cell Line Core Facility at MD Anderson Cancer Center by using a short tandem repeat method based on primer extension to detect single base deviations.
Cell proliferation was determined using the CellTiter-Blue viability assay as described previously (Gloeckner H, et al. Journal of immunological methods. 2001; 252(1-2):131-138). Cells were seeded in 96-well plates and treated the next day with MELK inhibitors (0-20 μM). At 72 h after MELK inhibitor treatment, optical density at 595 nm was determined.

BT-549 cells = experiment: Cell proliferation, CellTiter-Blue viability assay, BT-549; format: cell-based, human; details: 72 h after treatment
Excerpt: as §1, §2

NUAK1 = NUAK1 (Homo sapiens (Human), UniProt O60285); experiment: Selectivity dose-response kinase assay, NUAK1; format: biochemical; details: 100 μM ATP
Sequence of NUAK1 (O60285 whole entry): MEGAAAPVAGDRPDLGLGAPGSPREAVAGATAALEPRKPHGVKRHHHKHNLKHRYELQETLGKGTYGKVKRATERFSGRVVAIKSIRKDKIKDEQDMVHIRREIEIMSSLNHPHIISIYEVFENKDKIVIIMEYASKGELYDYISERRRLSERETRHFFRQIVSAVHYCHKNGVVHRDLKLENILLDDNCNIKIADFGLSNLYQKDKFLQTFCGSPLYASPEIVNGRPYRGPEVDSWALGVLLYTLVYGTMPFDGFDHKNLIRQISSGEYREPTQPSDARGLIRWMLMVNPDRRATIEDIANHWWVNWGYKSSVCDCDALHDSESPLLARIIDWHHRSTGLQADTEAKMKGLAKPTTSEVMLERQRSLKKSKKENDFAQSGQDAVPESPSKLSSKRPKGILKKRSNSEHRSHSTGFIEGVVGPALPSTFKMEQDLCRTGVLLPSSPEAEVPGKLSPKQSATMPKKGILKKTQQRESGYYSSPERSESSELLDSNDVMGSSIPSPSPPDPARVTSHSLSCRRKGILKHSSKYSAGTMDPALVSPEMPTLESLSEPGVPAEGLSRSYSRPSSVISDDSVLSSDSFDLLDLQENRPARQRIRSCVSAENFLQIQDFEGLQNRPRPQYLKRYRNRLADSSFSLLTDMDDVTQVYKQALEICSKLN
Excerpt: (§3) CHK1 and NUAK1 were purchased from SignalChem (Vancouver, BC). The NUAK2, CHK, and SAMS peptides were purchased from BioSyn (Lewisville, Tex.). The sequence of CHK and NUAK2 peptides are described elsewhere (Sanchez Y, et al. Science (New York, N.Y.). 1997; 277(5331):1497-1501; Scott J W, et al. Sci Rep. 2015; 5:14436). ERK2, AMPK, CAMKK2, and Ets1 were produced in house as previously described (Waas W F, Dalby K N. The Journal of biological chemistry. 2002; 277(15):12532-12540; Neumann D, et al. Protein Expr Purif. 2003; 30(2):230-237; Waas W F, Dalby K N. Protein Expr Purif. 2001; 23(1):191-197). Apparent KM values for ATP under specific assay conditions were determined using respective experimental conditions in Table 8 with varied ATP (0-1.28 mM). All selectivity dose-response assays were performed in kinase assay buffer (see Inhibitor Library Screen) with 2 mM DTT and 100 μM γ-^32P-ATP with additional conditions listed in Table 8. IC50 and KM^ATP values were subsequently used to calculate Ki (Equation 4). Relative selectivity was determined by comparing Ki^Enzyme/Ki^MELK (termed φ in Table 7). […] Standard error from linear regression data was propagated internally in Prism and taken into account in nonlinear regression to determine IC50 or Ki.

ERK2 = ERK2 (Rattus norvegicus (Rat), UniProt P63086); experiment: Selectivity dose-response kinase assay, ERK2; format: biochemical; details: 100 μM ATP
Sequence of ERK2 (P63086 whole entry): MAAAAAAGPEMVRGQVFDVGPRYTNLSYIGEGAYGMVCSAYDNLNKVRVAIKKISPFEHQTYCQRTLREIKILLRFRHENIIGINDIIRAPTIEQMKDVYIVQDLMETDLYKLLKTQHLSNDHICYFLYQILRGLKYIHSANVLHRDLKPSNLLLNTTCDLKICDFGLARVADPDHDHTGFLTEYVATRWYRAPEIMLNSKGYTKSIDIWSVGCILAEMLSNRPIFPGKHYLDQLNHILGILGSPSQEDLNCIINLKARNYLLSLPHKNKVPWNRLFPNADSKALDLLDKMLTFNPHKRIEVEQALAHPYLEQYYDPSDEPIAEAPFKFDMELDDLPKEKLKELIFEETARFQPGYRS
Excerpt: as §3

CAMKK2 = CAMKK2 (Homo sapiens (Human), UniProt Q96RR4); experiment: Selectivity dose-response kinase assay, CAMKK2; format: biochemical; details: 100 μM ATP
Sequence of CAMKK2 (Q96RR4 whole entry, species assumed): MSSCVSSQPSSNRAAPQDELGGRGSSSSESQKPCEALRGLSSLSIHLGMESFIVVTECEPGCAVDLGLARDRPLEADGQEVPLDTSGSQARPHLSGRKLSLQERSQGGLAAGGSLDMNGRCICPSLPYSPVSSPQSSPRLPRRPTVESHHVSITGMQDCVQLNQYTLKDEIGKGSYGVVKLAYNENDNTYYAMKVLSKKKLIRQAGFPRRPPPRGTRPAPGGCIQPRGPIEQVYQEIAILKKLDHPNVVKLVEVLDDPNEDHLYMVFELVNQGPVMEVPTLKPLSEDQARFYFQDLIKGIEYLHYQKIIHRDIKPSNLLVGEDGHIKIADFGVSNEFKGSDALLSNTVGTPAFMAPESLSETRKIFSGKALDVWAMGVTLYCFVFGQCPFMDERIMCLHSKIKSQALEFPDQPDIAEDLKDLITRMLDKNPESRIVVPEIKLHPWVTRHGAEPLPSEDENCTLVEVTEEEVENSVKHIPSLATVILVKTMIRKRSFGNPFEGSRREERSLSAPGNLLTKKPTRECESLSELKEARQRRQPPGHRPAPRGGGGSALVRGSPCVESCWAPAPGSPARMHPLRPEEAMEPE
Excerpt: as §3

AMPK = AMPK (Rattus norvegicus (Rat), UniProt P54645); experiment: Selectivity dose-response kinase assay, AMPK; format: biochemical; details: 100 μM ATP
Sequence of AMPK (P54645 whole entry, looked up): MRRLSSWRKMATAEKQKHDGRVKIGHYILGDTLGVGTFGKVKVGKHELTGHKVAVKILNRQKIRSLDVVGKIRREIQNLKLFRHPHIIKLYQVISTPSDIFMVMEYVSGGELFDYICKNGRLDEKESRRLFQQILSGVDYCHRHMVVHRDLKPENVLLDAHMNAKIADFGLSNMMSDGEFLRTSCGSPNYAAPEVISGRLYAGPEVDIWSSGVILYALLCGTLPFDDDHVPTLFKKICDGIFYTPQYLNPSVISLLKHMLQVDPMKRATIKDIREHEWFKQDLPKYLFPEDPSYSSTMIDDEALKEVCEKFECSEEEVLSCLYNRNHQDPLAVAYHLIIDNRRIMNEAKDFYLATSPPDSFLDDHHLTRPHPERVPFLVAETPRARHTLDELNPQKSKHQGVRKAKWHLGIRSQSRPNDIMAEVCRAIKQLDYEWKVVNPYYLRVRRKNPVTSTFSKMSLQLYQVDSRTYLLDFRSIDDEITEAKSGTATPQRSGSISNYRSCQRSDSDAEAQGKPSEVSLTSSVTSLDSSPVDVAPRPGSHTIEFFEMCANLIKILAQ
Sequence of AMPK (P80386 whole entry partner, looked up): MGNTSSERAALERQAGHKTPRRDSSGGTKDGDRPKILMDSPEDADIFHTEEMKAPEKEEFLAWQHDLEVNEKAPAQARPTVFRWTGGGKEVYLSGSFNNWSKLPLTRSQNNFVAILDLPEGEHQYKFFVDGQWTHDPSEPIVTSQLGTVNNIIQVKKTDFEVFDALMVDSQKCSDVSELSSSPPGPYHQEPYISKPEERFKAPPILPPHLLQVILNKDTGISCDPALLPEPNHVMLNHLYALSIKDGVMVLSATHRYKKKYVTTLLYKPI
Sequence of AMPK (P80385 whole entry partner, looked up): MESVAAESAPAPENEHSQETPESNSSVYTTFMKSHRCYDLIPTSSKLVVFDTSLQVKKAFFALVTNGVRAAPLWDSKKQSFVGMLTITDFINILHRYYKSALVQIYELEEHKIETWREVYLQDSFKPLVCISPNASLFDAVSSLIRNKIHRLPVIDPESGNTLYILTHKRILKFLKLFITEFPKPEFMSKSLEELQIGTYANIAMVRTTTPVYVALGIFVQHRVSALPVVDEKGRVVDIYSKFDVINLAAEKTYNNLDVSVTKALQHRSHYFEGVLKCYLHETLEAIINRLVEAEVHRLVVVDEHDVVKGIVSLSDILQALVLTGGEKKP
Excerpt: as §3

CHK1 = CHK1 (Homo sapiens (Human), UniProt O14757); experiment: Selectivity dose-response kinase assay, CHK1; format: biochemical; details: 100 μM ATP
Sequence of CHK1 (O14757 whole entry): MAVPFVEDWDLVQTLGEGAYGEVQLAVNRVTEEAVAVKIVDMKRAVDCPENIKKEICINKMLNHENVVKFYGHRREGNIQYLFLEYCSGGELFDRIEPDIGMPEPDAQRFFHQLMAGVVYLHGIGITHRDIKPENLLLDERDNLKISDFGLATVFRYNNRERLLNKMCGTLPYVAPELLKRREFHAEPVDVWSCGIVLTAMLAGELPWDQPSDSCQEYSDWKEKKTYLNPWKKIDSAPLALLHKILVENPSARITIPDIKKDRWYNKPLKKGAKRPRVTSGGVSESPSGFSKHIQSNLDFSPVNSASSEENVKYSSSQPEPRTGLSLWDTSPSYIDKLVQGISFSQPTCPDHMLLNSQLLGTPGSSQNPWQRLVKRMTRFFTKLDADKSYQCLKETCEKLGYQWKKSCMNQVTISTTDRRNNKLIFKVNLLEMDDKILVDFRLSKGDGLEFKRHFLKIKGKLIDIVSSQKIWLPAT
Excerpt: as §3

Ki (MELK; Ki calculated using Equation 4, [ATP] = 40 μM, KM app (ATP) = 6 μM, read-out: Ki ± SE) | IC50 (MELK; indolinone derivatives, 40 μM ATP, read-out: IC50) [µM] | Ki (NUAK1) [µM] | Ki (ERK2) [µM] | Ki (CAMKK2) [µM] | Ki (AMPK) [µM] | Ki (CHK1) [µM] | SMILES | proliferation of SUM-159 cells (SUM-159 cells) | proliferation of HCC70 cells (HCC70 cells) | proliferation of MCF10A cells (MCF10A cells) | proliferation of BT-549 cells (BT-549 cells) | proliferation of MCF10A cells (MCF10A cells; at 10 μM)
0.0031 µM and 0.00068 µM | 0.024 ± 0.0047 |  |  |  |  |  | CN1CCN(CC(=O)N(C)c2ccc(N/C(=C3\C(=O)Nc4ccc(F)cc43)c3ccccc3)cc2)CC1 [Compound 19, (Z)—N-(4-(((5-Fluoro-2-oxoindolin-3-ylidene)(phenyl)methyl)amino)phenyl)-N-methyl-2-(4-methylpiperazin-1-yl)acetamide] | inhibited all cell lines | inhibited all cell lines | inhibited all cell lines | inhibited all cell lines | 
 |  | 0.011 ± 0.00086 | 3 ± 1.3 | 0.031 ± 0.011 | 0.0092 ± 0.0017 | 0.007 ± 0.00017 | COC(=O)c1ccc2c(c1)/C(=C(/Nc1ccc(N(C)C(=O)CN3CCN(C)CC3)cc1)c1ccccc1)C(=O)N2 [Compound 17, Methyl(Z)-3-(((4-(N-methyl-2-(4-methylpiperazin-1-yl)acetamido)phenyl)amino)(phenyl)methylene)-2-oxoindoline-5-carboxylate] | clearly impacted | clearly impacted | little effect | clearly impacted | remained largely unaffected
